{"source": "patent US11318141B2", "about": "“Methods and compositions related to STK1-targeted small molecules as antibiotic resistance breakers” (Ohio State Innovation Foundation, priority 2017, dated 2022)", "key": {"[1]": {"system": "S. aureus MW2", "assay": "Broth dilution susceptibility / growth inhibition assay, Muller Hinton broth", "type": "cell-based, Staphylococcus aureus", "details": "growth inhibition of S. aureus MW2", "protocol": "(§1) Subsequently, the susceptibility of S. aureus MW2 strain to Ceftriaxone, Cefotaxime, Inh2, and Inh2-B1 was confirmed by the CLSI recommended serial dilution method using Muller Hinton broth. Minimum bactericidal activity (MBC) was measured using Muller-Hinton agar. Changes in the MBC of Ceftriaxone/Cefotaxime in the presence of serially diluted Inh2-B1 was determined in two steps. Initial screening was carried out using the Checkerboard method using Muller-Hinton agar (FIG. 15). […] Subsequent time to kill assays were carried out using 50 μM Inh2-B1 and Ceftriaxone. Cefotaxime (1 μg/ml) in a final volume of 250 μl using a sterile 96-well (U-bottom) microtiter plate over a period of 16 h at 37° C. under constant rotation (120 rpm). Optical density and corresponding CFU counts were measured at every two-hour interval up to 8 hours with a final overnight reading at the end of incubation period. CFU counts were measured using appropriate dilution of 10 μl of properly mixed samples at each time interval. All experiments were performed in three biological replicates and the statistical analysis of the results obtained at each time point was carried out by the non-parametric t-test with Welch's correction using GraphPad Prism 6 software."}, "[2]": {"system": "Detroit 562 cells", "assay": "MTT cell proliferation assay", "type": "cell-based, human", "details": "even at 100 μM, 24 h", "protocol": "(§2) Impact of Inh2-B1 on cell proliferation was determined by MTT (3-[4,5-dimethylthiazol-2-yl]-2,5 diphenyl tetrazolium bromide)-based assay using Roche Colorimetric proliferation assay kit. Cell lines mentioned above were grown in 96-well tissue culture plates in the CO2 incubator at 37° C. The cells were treated with Inh2-B1 as described above in a final volume of 100 μl for 24 h. At the end of incubation, tissue culture medium from each well was removed and replaced with fresh 100 μl of the medium containing MTT solution (0.5 mg/ml) and further incubated for 4 h. The purple color of formazan salt crystals formed in each well was solubilized with the addition of 100 μl of 10% SDS solution in 0.01M HCl and further incubating for 10-12 h. The solubilized formazan product in each well was spectrophotometrically analyzed using a microtiter plate reader (Molecular Devices, 570 nm). Absorbance values of wells containing MTT reagents without cells and the untreated cultured cells with MTT reagents were considered as the background and negative controls. All tests were performed in triplicate wells. The average background value obtained from 10 wells was subtracted from the test values, and the corrected values obtained from untreated and treated cells were statistically analyzed by Student's test. P<0.05 was treated as a significant difference."}, "[3]": {"system": "BEAS-2B cells", "assay": "MTT cell proliferation assay", "type": "cell-based, human", "details": "24 h", "protocol": "as §2"}, "[4]": {"system": "S. aureus MW2 wild-type", "assay": "Checkerboard titration end-point bactericidal assay (MBC), Muller-Hinton agar", "type": "cell-based, Staphylococcus aureus", "details": "agent alone", "protocol": "FIGS. 15A-15B show checkerboard assays for determining bactericidal assay. Serial two-fold dilutions of 2 mM of Inh2-B1 (MW=411.58 g/mol) and (A) 3 mM ceftriaxone (MW=669.7 g/mol) were made in two separate 96-well plates in vertical (B1-B12 to H1-H2 wells) and horizontal (A2-H2 to A12-H12 wells) directions respectively. Serially diluted Inh2-B1 (100 μL) in the individual well was then mixed with the 100 μL serially diluted ceftriaxone present in the corresponding wells. The resulting various combinations of Inh2-B1 (starting from 1 mM) and ceftriaxone (starting from 1.5 mM) or cefotaxime (2.1 mM) as well as serially diluted one Inh2-B1 (B1 to H1) and ceftriaxone (A2-A12) or cefotaxime (A2-A12) were then incorporated in Muller-Hinton mini agar plates (2 mL). The agar plates were then seeded and diluted S. aureus MW2-wild-type culture equivalent to approximately 23±3 CFU. This checkerboard assay was used to determine the ideal combination of lowest concentration of Inh2-B1 and ceftriaxone that kills 99.9% of the wild-type MW2.\n(§3) Since the STK1 is not essential for bacterial survival and its absence results in retardation of growth, an end-point bactericidal assay was done, employing the Checkerboard titration method followed by a time-to-kill assay using the broth dilution method. The 96-well plate-based checkerboard titration assays were performed using the fixed number of CFUs of MW2 strain, and the survival of the bacteria was measured on solid agar plates as an end-point result. […] The cut-off value to designate clinical isolates of S. aureus for antibiotics, including Ceftriaxone (TX) and Cefotaxime (CT) as susceptible, is less than 4 μg/ml (i.e., <4.8 μM of TX, and <7 μM of CT). […] CFU counts of MW2-WT grown in the presence of various concentrations of Inh2-B1 were examined over a period of 16 h. […] Similarly, it was also determined CFU counts of MW2-WT and MW2ΔSTK1 strains each grown in the absence or the presence of 50 μM of Inh2-B1 and 1.5 μM Ceftriaxone (1 μg/ml) or […] Cefotaxime (1 μg/ml) for 16 h employing the broth dilution method. […] Further, to address whether MW2 or STK1 could become refractory to a potential combined therapy, the S. aureus MW2 wild-type strain was grown in the presence of suboptimal dose of Inh2-B1 alone and combination with Ceftriaxone and Cefotaxime (25 μM Inh2-B1 and 3 μM of Ceftriaxone or 3 μM Cefotaxime) for consecutive 10 generations.\nas §1, with “interval.” for “interval. All experiments were performed in three biological replicates and the statistical analysis of the results obtained at each time point was carried out by the non-parametric t-test with Welch's correction using GraphPad Prism 6 software.”"}, "[5]": {"system": "S. aureus MW2 wild-type", "assay": "Serial passage at suboptimal dose (10 generations), stk1 PCR and DNA sequencing", "type": "cell-based, Staphylococcus aureus", "details": "25 μM Inh2-B1 alone or with 3 μM Ceftriaxone or 3 μM Cefotaxime, 10 generations", "protocol": "as §3"}}, "data": [{"smiles": "COC(=O)c1ccc2c(=O)[nH]c3c(C(=O)Nc4ccccc4)sc(=S)n3c2c1", "note": "[Inh2-B1, Methyl 5-oxo-3-(phenylcarbamoyl)-1-thioxo-4,5dihydro[1,3]thiazolo[3,4-a]quinazoline-8-carboxylate]", "values": [{"measurement": "concentration at which S. aureus MW2 still grows", "setting": "[1]", "value": "> 50", "unit": "µM"}, {"measurement": "effect on cell proliferation (MTT)", "setting": "[2]", "value": "did not affect cell proliferation"}, {"measurement": "cell proliferation inhibition (MTT)", "setting": "[3]; 50 μM", "value": "~20", "unit": "%"}, {"measurement": "cell proliferation inhibition (MTT)", "setting": "[3]; 100 μM", "value": "~40", "unit": "%"}, {"measurement": "MBC", "setting": "[4]; Staphylococcus aureus, MW2WILDTYPE, MW2, read-out: Minimum bactericidal concentration (MBC)", "value": 100, "unit": "µM"}, {"measurement": "concentration up to which growth of MW2 was seen", "setting": "[4]; further analysis", "value": 90, "unit": "µM"}, {"measurement": "concentration of wells with ≥1 CFU of wild-type MW2", "setting": "[4]; checkerboard", "value": "≤ 50", "unit": "µM"}, {"measurement": "changes in the stk1 gene of the passaged strain", "setting": "[5]", "value": "did not show any changes in the stk1 gene"}]}]}
